These results are taken from patent publication US10294229B2, “Heteroaryl substituted aminopyridine compounds” (BRISTOL-MYERS SQUIBB COMPANY, priority 2015, dated 2019).

Chain of IRAK4 (Q9NWZ3 whole entry, species assumed): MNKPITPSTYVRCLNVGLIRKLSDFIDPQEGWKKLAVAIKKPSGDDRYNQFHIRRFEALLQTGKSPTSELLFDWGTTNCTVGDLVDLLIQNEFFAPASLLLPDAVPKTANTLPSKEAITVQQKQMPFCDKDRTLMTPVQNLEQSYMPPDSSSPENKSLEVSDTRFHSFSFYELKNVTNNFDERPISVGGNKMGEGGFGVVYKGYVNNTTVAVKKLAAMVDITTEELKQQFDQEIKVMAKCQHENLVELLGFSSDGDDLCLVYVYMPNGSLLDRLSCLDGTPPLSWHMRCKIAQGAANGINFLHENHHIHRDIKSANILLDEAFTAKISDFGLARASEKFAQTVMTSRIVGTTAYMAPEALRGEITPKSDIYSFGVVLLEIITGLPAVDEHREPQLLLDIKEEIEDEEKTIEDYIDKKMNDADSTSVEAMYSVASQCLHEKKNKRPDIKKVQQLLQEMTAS

The assay has as its target IRAK4 (Homo sapiens (Human), UniProt Q9NWZ3). The assay is described as follows: IRAK4 Inhibition Assay. The format is biochemical. Conditions: ATP 500 μM; IRAK4 0.6 nM. As for the experimental part: The assays were performed in U-bottom 384-well plates. The final assay volume was 30 μL prepared from 15 μL additions of enzyme and substrates (fluoresceinated peptide and ATP) and test compounds in assay buffer (20 mM HEPES pH 7.2, 10 mM MgCl2, 0.015% Brij 35 and 4 mM DTT). The reaction was initiated by the combination of IRAK4 with substrates and test compounds. The reaction mixture was incubated at room temperature for 60 min. and terminated by adding 45 μL of 35 mM EDTA to each sample. The reaction mixture was analyzed on the Caliper LABCHIP® 3000 (Caliper, Hopkinton, Mass.) by electrophoretic separation of the fluorescent substrate and phosphorylated product. Inhibition data were calculated by comparison to no enzyme control reactions for 100% inhibition and vehicle-only reactions for 0% inhibition. The final concentrations of reagents in the assays are ATP, 500 μM; FL-IPTSPITTTYFFFKKK peptide 1.5 μM; IRAK4, 0.6 nM; and DMSO, 1.6%.
In the case of `CC(C)Nc1cc(-n2ncc3cc(C#N)cnc32)ncc1-c1cn(C[C@@H](N)Cc2ccccc2)nn1` [Example 168, (S)-1-(5-(1-(2-amino-3-phenylpropyl)-1H-1,2,3-triazol-4-yl)-4-(isopropylamino)pyridin-2-yl)-1H-pyrazolo[3,4-b]pyridine-5-carbonitrile], the IC50 was found to be 24 nM. `CC(C)Nc1cc(-n2ncc3cc(C#N)cnc32)ncc1-c1cn(-c2ccccc2C#N)nn1` [Example 173, 1-(5-(1-(2-cyanophenyl)-1H-1,2,3-triazol-4-yl)-4-(isopropylamino)pyridin-2-yl)-1H-pyrazolo [3,4-b]pyridine-5-carbonitrile]: the IC50 turned out to be 26 nM. Consider `CC(C)Nc1cc(-n2ncc3cc(C#N)cnc32)ncc1-c1cn(-c2cccnc2)nn1` [Example 174, 1-(4-(isopropylamino)-5-(1-(pyridin-3-yl)-1H-1,2,3-triazol-4-yl)pyridin-2-yl)-1H-pyrazolo[3,4-b]pyridine-5-carbonitrile], for which the IC50 is 17 nM. Next, `COC(=O)c1ccccc1-n1cc(-c2cnc(-n3ncc4cc(C#N)cnc43)cc2NC(C)C)nn1` [Example 175, methyl 2-(4-(6-(5-cyano-1H-pyrazolo[3,4-b]pyridin-1-yl)-4-(isopropylamino)pyridin-3-yl)-1H-1,2,3-triazol-1-yl)benzoate]: 35 nM; `CC(C)Nc1cc(-n2ncc3cc(C#N)cnc32)ncc1-c1cn([C@H]2CCN(C(=O)c3cccnc3)C[C@H]2O)nn1` [Example 184, 1-(5-(1-((3R,4S)-3-hydroxy-1-nicotinoylpiperidin-4-yl)-1H-1,2,3-triazol-4-yl)-4-(isopropylamino)pyridin-2-yl)-1H-pyrazolo[3,4-b]pyridine-5-carbonitrile]: 20 nM; `CC(C)Nc1cc(-n2ncc3cc(C(N)=O)cnc32)ncc1-c1cn([C@@H]2CCNC[C@@H]2O)nn1` [Example 187, 1-(5-(1-((3S,4R)-3-hydroxypiperidin-4-yl)-1H-1,2,3-triazol-4-yl)-4-(isopropylamino)pyridin-2-yl)-1H-pyrazolo[3,4-b]pyridine-5-carboxamide]: 302 nM.

Take `CCOC(=O)N1CC[C@@H](n2cc(-c3cnc(-n4ncc5cc(C#N)cnc54)cc3NC(C)C)nn2)[C@@H](O)C1` [Example 189, (3S,4R)-ethyl 4-(4-(6-(5-cyano-1H-pyrazolo[3,4-b]pyridin-1-yl)-4-(isopropylamino)pyridin-3-yl)-1H-1,2,3-triazol-1-yl)-3-hydroxypiperidine-1-carboxylate]: the IC50 was found to be 27 nM.

As for `CC(C)Nc1cc(-n2ncc3cc(C#N)cnc32)ncc1-c1cn(CC(=O)N2CCN(S(C)(=O)=O)CC2)nn1` [Example 193, 1-(4-(isopropylamino)-5-(1-(2-(4-(methylsulfonyl)piperazin-1-yl)-2-oxoethyl)-1H-1,2,3-triazol-4-yl)pyridin-2-yl)-1H-pyrazolo[3,4-b]pyridine-5-carbonitrile], the IC50 amounted to 4 nM. Next, `CC(C)CCn1cc(-c2cnc(-n3ncc4cc(Cl)cnc43)cc2NC(C)C)nn1` [Example 217, 2-(5-chloro-1H-pyrazolo [3,4-b]pyridin-1-yl)-5-(1-isopentyl-1H-1,2,3-triazol-4-yl)-N-isopropylpyridin-4-amine]: 6 nM. Consider `CC(C)Nc1cc(-n2ncc3cc(C#N)cnc32)ncc1-c1cn(C[C@H](C)O)cn1` [Example 222, (S)-1-(5-(1-(2-hydroxypropyl)-1H-imidazol-4-yl)-4-(isopropylamino)pyridin-2-yl)-1H-pyrazolo[3,4-b]pyridine-5-carbonitrile], for which the IC50 came out at 63 nM.

Take `CC(=O)N1CC(n2cnc(-c3cnc(-n4ncc5cc(C#N)cnc54)cc3NC(C)C)c2)C1` [Example 223, 1-(5-(1-(1-acetylazetidin-3-yl)-1H-imidazol-4-yl)-4-(isopropylamino)pyridin-2-yl)-1H-pyrazolo[3,4-b]pyridine-5-carbonitrile]: the IC50 amounted to 22 nM.

In the case of `CC(C)Nc1cc(-n2ncc3cc(C#N)cnc32)ncc1-c1cn(-c2cccnc2)cn1` [Example 224, 1-(4-(isopropylamino)-5-(1-(pyridin-3-yl)-1H-imidazol-4-yl)pyridin-2-yl)-1H-pyrazolo[3,4-b]pyridine-5-carbonitrile], the IC50 was 87 nM. For `CCn1cnc(-c2cnc(-n3ncc4cc(C#N)cnc43)cc2NC(C)C)c1` [Example 227, 1-(5-(1-ethyl-1H-imidazol-4-yl)-4-(isopropylamino)pyridin-2-yl)-1H-pyrazolo[3,4-b]pyridine-5-carbonitrile], the IC50 is 29 nM. Take `CC(C)Nc1cc(-n2ncc3cc(C#N)cnc32)ncc1-c1cn(C[C@H](C)CO)cn1` [Example 228, (S)-1-(5-(1-(3-hydroxy-2-methylpropyl)-1H-imidazol-4-yl)-4-(isopropylamino)pyridin-2-yl)-1H-pyrazolo[3,4-b]pyridine-5-carbonitrile]: the IC50 stood at 19 nM. Consider `CC(C)Nc1cc(-n2ncc3cc(C#N)cnc32)ncc1-c1cn(Cc2ccccc2)cn1` [Example 230, 1-(5-(1-benzyl-1H-imidazol-4-yl)-4-(isopropylamino)pyridin-2-yl)-1H-pyrazolo[3,4-b]pyridine-5-carbonitrile], for which the IC50 was found to be 27 nM.

For the molecule `CC(C)Nc1cc(-n2ncc3cc(C#N)cnc32)ncc1-c1cn(CC(=O)N2CCOCC2)cn1` [Example 231, 1-(4-(isopropylamino)-5-(1-(2-morpholino-2-oxoethyl)-1H-imidazol-4-yl)pyridin-2-yl)-1H-pyrazolo[3,4-b]pyridine-5-carbonitrile], the half-inhibitory concentration (IC50) came to 21 nM.

For `CC(C)Nc1cc(-n2ncc3cc(C#N)cnc32)ncc1-c1cn(Cc2cccnc2)cn1` [Example 235, 1-(4-(isopropylamino)-5-(1-(pyridin-3-ylmethyl)-1H-imidazol-4-yl)pyridin-2-yl)-1H-pyrazolo[3,4-b]pyridine-5-carbonitrile], the IC50 stood at 30 nM. Take `CC(C)Nc1cc(-n2ncc3cc(C#N)cnc32)ncc1-c1cn(CC(N)=O)cn1` [Example 237, 2-(4-(6-(5-cyano-1H-pyrazolo[3,4-b]pyridin-1-yl)-4-(isopropylamino)pyridin-3-yl)-1H-imidazol-1-yl) acetamide]: the concentration for half-maximal inhibition (IC50) is 37 nM. Next, `CNC(=O)Cn1cnc(-c2cnc(-n3ncc4cc(C#N)cnc43)cc2NC(C)C)c1` [Example 238, 2-(4-(6-(5-cyano-1H-pyrazolo[3,4-b]pyridin-1-yl)-4-(isopropylamino)pyridin-3-yl)-1H-imidazol-1-yl)-N-methylacetamide]: 36 nM. `CC(C)Nc1cc(-n2ncc3cc(C#N)cnc32)ncc1-c1cn(Cc2ccccn2)cn1` [Example 239, 1-(4-(isopropylamino)-5-(1-(pyridin-2-ylmethyl)-1H-imidazol-4-yl)pyridin-2-yl)-1H-pyrazolo[3,4-b]pyridine-5-carbonitrile]: the IC50 came to 34 nM. In the case of `CC(C)Nc1cc(-n2ncc3cc(C#N)cnc32)ncc1-c1cn(CCCc2ccccc2)cn1` [Example 241, 1-(4-(isopropylamino)-5-(1-(3-phenylpropyl)-1H-imidazol-4-yl)pyridin-2-yl)-1H-pyrazolo [3,4-b]pyridine-5-carbonitrile], the IC50 worked out at 35 nM.

Turning to `CC(C)Nc1cc(-n2ncc3cc(C#N)cnc32)ncc1-n1cc(CCO)cn1` [Example 242, 1-(5-(4-(2-hydroxyethyl)-1H-pyrazol-1-yl)-4-(isopropylamino)pyridin-2-yl)-1H-pyrazolo[3,4-b]pyridine-5-carbonitrile], the IC50 came to 47 nM. On to `CC(C)Nc1cc(-n2ncc3cc(C#N)cnc32)ncc1-n1cc(Cc2ccccc2)cn1` [Example 243, 1-(5-(4-benzyl-1H-pyrazol-1-yl)-4-(isopropylamino)pyridin-2-yl)-1H-pyrazolo[3,4-b]pyridine-5-carbonitrile], for which the half-inhibitory concentration (IC50) came to 62 nM. Next, `CC(C)Nc1cc(-n2ncc3cc(C#N)cnc32)ncc1-n1cc(C(C)C)cn1` [Example 244, 1-(5-(4-isopropyl-1H-pyrazol-1-yl)-4-(isopropylamino)pyridin-2-yl)-1H-pyrazolo[3,4-b]pyridine-5-carbonitrile]: 61 nM. As for `CC(C)Nc1cc(-n2ncc3cc(C#N)cnc32)ncc1-n1cc(-c2ccccn2)cn1` [Example 245, 1-(4-(isopropylamino)-5-(4-(pyridin-2-yl)-1H-pyrazol-1-yl)pyridin-2-yl)-1H-pyrazolo[3,4-b]pyridine-5-carbonitrile], the IC50 was 334 nM. Take `Cc1ccn(-c2cnc(-n3ncc4cc(C#N)cnc43)cc2NC(C)C)n1` [Example 246, 1-(4-(isopropylamino)-5-(3-methyl-1H-pyrazol-1-yl)pyridin-2-yl)-1H-pyrazolo[3,4-b] pyridine-5-carbonitrile]: the IC50 is 336 nM. Turning to `CC(C)Nc1cc(-n2ncc3cc(C#N)cnc32)ncc1-n1ccc(C(F)(F)F)n1` [Example 247, 1-(4-(isopropylamino)-5-(3-(trifluoromethyl)-1H-pyrazol-1-yl)pyridin-2-yl)-1H-pyrazolo[3,4-b]pyridine-5-carbonitrile], the IC50 was 202 nM.

With `CC(C)Nc1cc(-n2ncc3cc(C#N)cnc32)ncc1-n1ccc(C#N)n1` [Example 248, 1-(5-(3-cyano-1H-pyrazol-1-yl)-4-(isopropylamino)pyridin-2-yl)-1H-pyrazolo[3,4-b]pyridine-5-carbonitrile], the IC50 is 66 nM.

Turning to `CC(C)Nc1cc(-n2ncc3cc(C#N)cnc32)ncc1-n1ccc(-c2cccnc2)n1` [Example 249, 1-(4-(isopropylamino)-5-(3-(pyridin-3-yl)-1H-pyrazol-1-yl)pyridin-2-yl)-1H-pyrazolo[3,4-b]pyridine-5-carbonitrile], the concentration for half-maximal inhibition (IC50) was 47 nM.

The IC50 is the concentration that gives 50% inhibition.
